Source: US10857105B2, “Compounds and compositions for intracellular delivery of therapeutic agents” (ModernaTX, Inc., priority 2017, dated 2020)

Columns and labels:
[1] = Encapsulation efficiency of RNA in nanoparticle compositions (RIBOGREEN assay); format: physicochemical; conditions: Table 1A; lipid:DSPC:cholesterol:PEG-DMG 50:10:38.5:1.5 mol %
In short: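 Lipid nanoparticles (ionisable lipid:DSPC:cholesterol:PEG-DMG 50:10:38.5:1.5 mol %) carrying N1-methylpseudouridine luciferase or hEPO mRNA diluted to about 5 μg/mL in TE, pH 7.5, with or without 2% Triton X-100, 15 min at 37° C. RiboGreen fluorescence (ex ~480, em ~520 nm) blank-subtracted; free RNA = intact/disrupted signal.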

modified luciferase = assay: Luciferase expression in liver, lung, spleen and femur 6 hours after intravenous administration to mice; format: in vivo; conditions: 6 hours after intravenous 0.5 mpk, mice
In short: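 Nanoparticle formulations of the modified luciferase were given intravenously to mice (n=3) at 0.5 mpk. Bioluminescence was measured after 6 hours as total light flux. Standard MC3 formulation and PBS run as controls.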

IL-6, IP-10 = assay: Cytokine induction (IL-6, IP-10) in mice 6 hours after intravenous administration; format: in vivo; design: unit not given here; conditions: intravenous 0.5 mpk
In short: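 Mice dosed intravenously with nanoparticle compositions at 0.5 mpk; serum cytokine concentrations (IL-6, IP-10) measured at 6 hours. MC3 formulation and PBS controls run alongside.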

CD-1 mice = assay: Luciferase expression after intravenous delivery of luciferase mRNA LNPs (bioluminescent imaging); format: in vivo; conditions: intravenous 0.5 mg/kg mRNA dose
Protocol: Whole body and ex vivo organ bioluminescent imaging of mice: CD-1 mice were injected 15 minutes prior to the imaging timepoint intraperitoneally (IP) with 200 μL Xenolight D-luciferin K+ salt, diluted in PBS just prior to use to a concentration of 15 mg/mL. Ex vivo imaging of organs was completed, within 25 minutes of luciferin administration. All images were quantified by region of interest for total flux.
[…] […] (See Semple, S.C. et al., Nature Biotech. 2010. 28, 172-176, Jayaraman, M., et al. Angew. Chem. Int. Ed. 2012, 51, 8529-8533, the entire contents of each of which are incorporated by reference herein in their entireties). To evaluate the efficiency of the new amino lipids, LNPs using the novel compounds were tested in vivo in mice using luciferase mRNA as a reporter. An MC3 LNP was included as a control in each experiment, enabling the comparison of LNPs from experiment to experiment. Measured luciferase activity also enabled the determination of protein bio-distribution.

[2] = Chemical stability of lipids in ethanol at room temperature and 37° C. (lipid purity); format: physicochemical
Protocol: Ester linkages were previously reported to trigger metabolism by esterases in vivo. (See Fukami, T. et al. Drug Metab. Pharmacokinet. 2012, 27, 466-477, the content of which is incorporated by reference herein in its entirety). […] (See Maier M. A., Mol. Ther. 2013, 21, 1570-1578, the content of which is incorporated herein in its entirety) First, the chemical stability of the lipids was evaluated by measuring ethanol stability at room temperature and 37° C. (Table 39). […] LNPs formed with compound 138 were larger, with a surface pKa>7. […] Removal of one ester function (compound 136) afforded LNPs with improved physiochemical characteristics and lower LNP surface pKa.

[3] = Particle size and polydispersity index of nanoparticle compositions (Zetasizer Nano ZS); format: physicochemical
In short: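 Size and PDI measured by Zetasizer Nano ZS in 1×PBS (zeta potential in 15 mM PBS). Lipid nanoparticles contained test ionizable lipid:DSPC:cholesterol:PEG-DMG at 50:10:38.5:1.5 mol % with N1-methyl-pseudouridine mRNA encoding luciferase or hEPO.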

hEPO mRNA = assay: hEPO expression after intravenous administration to rats; format: in vivo, rat; conditions: rats, 6 hours; for Lipid/MC3 hEPO conc. ratio, 0.2 mpk: intravenous 0.2 mpk; for Lipid/MC3 hEPO conc. ratio, 2 mpk: intravenous 2 mpk
Protocol: The expression of hEPO and cytokine induction in rats intravenously administered a nanoparticle composition at a dose of 2.0 mpk was measured at 6 h.
(§1) The expression of hEPO in rats intravenously administered a nanoparticle composition at a dose of 0.2 mpk or 2.0 mpk was measured at 6 hours. Table 16 summarize the ratio of hEPO expression levels using various nanoparticle compositions as compared to the hEPO expression level using MC3 formulation and the lipid levels in the liver measured 48 hours after administration, as described above. Tables 17 and 18 summarize the lipid levels in the liver and spleen measured 48 hours after administration of Compounds 28, 33, 53, and 54. Liver and spleen levels represent the average values calculated for 3 rats in each group. As is shown in Tables 17 and 18, less than 10% of Compounds 28, 33, 53, and 54 remained in the liver after 48 hours, while greater than 60% of MC3 remained.
(§2) Table 19A summarizes the hEPO expression, IP-10 induction, liver and spleen levels, and alanine aminotransferase (ALT) and aspartate aminotransferase (AST) measured upon intravenous administration of formulations including Compounds 48, 49, and 50 to rat at 0.2 and 2 mpk and hEPO mRNA. hEPO concentrations were measured 6 hours after administration, while cytokine induction and liver and spleen levels were measured 48 hours after administration. hEPO and IP-10 concentrations are presented in pg/ml, while liver levels are provided in ng/g. ALT and AST levels are presented in international units.
The expression of hEPO induced by intravenous administration to rats of nanoparticle compositions at various doses was measured at 2, 4, 6, 8, 24, and 48 hour time points. FIGS. 3-6 respectively summarize the hEPO expression measured upon intravenous administration of formulations including Compounds 26, 18, 25, and MC3 to rat at various doses. The lipid levels of Compound 26 in the liver after 48 hours were about 19%.
(§3) The expression of hEPO and lipid levels in the liver and spleen in rats intravenously administered a nanoparticle composition at a dose of 0.2 mpk was measured at various time points. Compounds 18 and 25 were selected for comparison with MC3. Lipids were formulated according to the standard MC3 formulation described above. Rats were administered intravenously a single 0.2 mpk dose and expression monitored at 0.25, 0.5, 1, 2, 4, 8, 24, and 48 hours after administration.

[4] = Residual lipid levels in rat liver and spleen (UPLC-MS); format: in vivo; conditions: rats, 2 mpk, 48 h; assuming 300 g rat and 15 g liver
Protocol: At 48 h liver tissue was harvested for lipid quantification. To pre-weighed tissues, Milli-Q water was added (900 μL water per 100 mg tissue). Tissues were homogenized using an Omni probe homogenizer until uniform. 50 μL of samples and matrix calibration standards were aliquoted into a 96-well plate. 50 μL of blank matrix for matrix blanks and control blanks were aliquoted. 400 μL IS spiking solution were manually added to all samples except matrix blanks. 400 μL of 50:50 ACN:IPA were manually added to matrix-blanks. The plate was covered and the samples vortexed and centrifuged for 5 minutes at >3000 rpm. 200 μL of the samples were transferred into a clean 96-well plate for analysis. Samples were analyzed on a Waters Acquity UPLC using a Higgins Analytical Clipeus C8 column ([…], 30×2.1 mm) and a gradient of either 70-95% or 60-95% (Mobile Phase A: 5 mM ammonium formate in 50:50:1 H2O:MeOH:formic acid; Mobile Phase B: 5 mM ammonium formate in 100:1 MeOH:formic acid) over 1.3 min at […] (column temperature 55° C.). Detection was based on electrospray ionization (ESI) in positive mode using a Sciex API5500 Mass Spectrometer.
as §1, §2, §3

luciferase (Luc) mRNA = assay: Luciferase expression (whole body bioluminescence) after intravenous administration to mice; format: in vivo; conditions: Table 3G, intravenous, luciferase, 6 hr. timepoint, relative to MC3
In short: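 Mice (n=6) received lipid nanoparticle formulations carrying luciferase mRNA intravenously at 0.5 mg/kg. Whole-body bioluminescence was measured at 3, 6 and 24 h. Total flux was taken as area under the curve and expressed relative to a standard MC3 formulation.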

[5] = Lipid clearance: mouse liver tissue level and % dose remaining in liver after intravenous administration; format: in vivo; conditions: mouse, liver, 0.5 mg/kg
[6] = Table 1A, lipid:DSPC:cholesterol:PEG-DMG 50:10:38.5:1.5 mol %
[7] = Table 1D, compositions for subcutaneous administration, # formulated with hEPO mRNA

SMILES | EE [1] | Total Flux, Femur (modified luciferase) | Total Flux, Liver (modified luciferase) | Total Flux, Lung (modified luciferase) | Total Flux, Spleen (modified luciferase) | Cytokine induction, IL-6 (IL-6, IP-10) | Cytokine induction, IP-10 (IL-6, IP-10) | Lipid Purity, t = 96 h, 25° C. [2] | Lipid Purity, t = 96 h, 37° C. [2] | Lipid Purity, t = 0 [2] | Size [3, 6] | Size [3, 7] | further results
CCCCCCCCCOC(=O)CCCCCCCN(CCCCCCCC(=O)OC(CCCCCCCC)CCCCCCCC)CCN(C)C [Compound 14, Heptadecan-9-yl 8-((2-(dimethylamino)ethyl)(8-(nonyloxy)-8-oxooctyl)amino)octanoate] | 95.24% | 4.91E+06 | 1.91E+08 | 4.74E+06 | 1.92E+08 | 75.29 | 621.49 | 92.07% | 91.90% | 92.08% |  |  | luciferase activity/expression compared to MC3 LNP control (words) (CD-1 mice; 0.5 mg/kg): complete loss of delivery efficiency; luciferase activity/expression compared to MC3 LNP control (words) (CD-1 mice; listed as compound 14, 0.5 mg/kg): low levels of Luciferase expression
CCCCCCCCC(CC)OC(=O)CCCCCCCN(CCO)CCCCCCCC(=O)OC(CCCCCCCC)CCCCCCCC (stereo not shown) [Compound 49, heptadecan-9-yl 8-((2-hydroxyethyl)(8-oxo-8-(undecan-3-yloxy)octyl)amino)octanoate] |  |  | 5.68E+09 | 2.52E+07 | 1.87E+08 |  |  |  |  |  | 88 nm | 74.0 nm | Lipid/MC3 hEPO conc. ratio, 0.2 mpk (hEPO mRNA): 4.13; Lipid/MC3 hEPO conc. ratio, 2 mpk (hEPO mRNA): 3.28; % Lipid Remaining in liver, 48 h, 2 mpk [4]: 12.6%
CCCCCCCCC(CCC)OC(=O)CCCCCCCN(CCO)CCCCCCCC(=O)OC(CCCCCCCC)CCCCCCCC (stereo not shown) [Compound 50, dodecan-4-yl 8-((8-(heptadecan-9-yloxy)-8-oxooctyl)(2-hydroxyethyl)amino)octanoate] |  |  | 6.30E+09 | 2.81E+07 | 1.14E+08 |  |  |  |  |  | 68.4 nm |  | Lipid/MC3 hEPO conc. ratio, 0.2 mpk (hEPO mRNA): 3.41; Lipid/MC3 hEPO conc. ratio, 2 mpk (hEPO mRNA): 3.03; % Lipid Remaining in liver, 48 h, 2 mpk [4]: 15.9%
CCCCC/C=C\C/C=C\CCCCCCCCN(CCO)CCCCCCCC(=O)OCCCCCCCCC [Compound 136, Nonyl 8-((2-hydroxyethyl)((9Z,12Z)-octadeca-9,12-dien-1-yl)amino)octanoate] | 90.9% | 6.60E+05 | 1.34E+08 | 8.91E+05 | 2.77E+07 | 28.69 | 887.91 | 93.17% | 93.86% | 91.81% |  |  | 
CCCCCCCCCOC(=O)C(C)CCCCCCN(CCO)CCCCCCCC(=O)OC(CCCCCCCC)CCCCCCCC (stereo not shown) [Compound 164, Nonyl 8-((8-(heptadecan-9-yloxy)-8-oxooctyl)(2-hydroxyethyl)amino)-2-methyloctanoate] | 91.2% |  |  |  |  |  |  |  |  |  | 84.5 nm | 75.7 nm | Novel lipid/MC3 ratio, i.v. (luciferase (Luc) mRNA): 1.24; concentration at 6 h [5]: 36000 ng/g; concentration at 24 h [5]: 24200 ng/g
CCCCCCCCCC(=O)OC(C)CCCCCCN(CCO)CCCCCCCOC(=O)C(CCCCCCCC)CCCCCCCC (stereo not shown) [Compound 165, 7-((7-(Decanoyloxy)octyl)(2-hydroxyethyl)amino)heptyl 2-octyldecanoate] | 92.9% |  |  |  |  |  |  |  |  |  | 84.6 nm | 74.3 nm | Novel lipid/MC3 ratio, i.v. (luciferase (Luc) mRNA): 2.12; concentration at 6 h [5]: 26900 ng/g; concentration at 24 h [5]: 11700 ng/g
CCCCCCCCCOC(=O)CCCCCCCN(CCO)CCCCCCCC(=O)OCCCCCCCCC [compound 138, Dinonyl 8,8′-((2-hydroxyethyl)azanediyl)dioctanoate] | 91.8% | 1.58E+05 | 3.66E+06 | 9.47E+04 | 4.04E+06 | 23.38 | 172.56 | 98.64% | 97.82% | 97.59% |  |  | 
CCCCCCCCCOC(=O)CCCCCCCN(CCCCCCCC(=O)OC(CCCCCCCC)CCCCCCCC)CCCNC(=O)C(C)(C)COC [compound 281, Heptadecan-9-yl 8-((3-(3-methoxy-2,2-dimethylpropanamido)propyl)(8-(nonyloxy)-8-oxooctyl)amino)octanoate] |  |  |  |  |  |  |  | 95.15% | 96.47% | 95.17% |  |  | localization of protein expression (whole body imaging) (CD-1 mice): majority of protein expression was localized in the liver; luciferase activity/expression compared to MC3 LNP control (words) (CD-1 mice): two-fold lower
